Laboratory results reported in PMC3872227 (Chemistry & biology, 2013).

Target: α1(A322D)β2γ2 GABAA receptor (α1 subunit) (Homo sapiens, UniProt P14867+P47870, P14867:A322D)
Assay: whole-cell patch-clamp peak current at […] GABA, after SAHA treatment
Assay type: cell-based

Chain of α1(A322D)β2γ2 GABAA receptor (α1 subunit) (P14867 28-456 A322D): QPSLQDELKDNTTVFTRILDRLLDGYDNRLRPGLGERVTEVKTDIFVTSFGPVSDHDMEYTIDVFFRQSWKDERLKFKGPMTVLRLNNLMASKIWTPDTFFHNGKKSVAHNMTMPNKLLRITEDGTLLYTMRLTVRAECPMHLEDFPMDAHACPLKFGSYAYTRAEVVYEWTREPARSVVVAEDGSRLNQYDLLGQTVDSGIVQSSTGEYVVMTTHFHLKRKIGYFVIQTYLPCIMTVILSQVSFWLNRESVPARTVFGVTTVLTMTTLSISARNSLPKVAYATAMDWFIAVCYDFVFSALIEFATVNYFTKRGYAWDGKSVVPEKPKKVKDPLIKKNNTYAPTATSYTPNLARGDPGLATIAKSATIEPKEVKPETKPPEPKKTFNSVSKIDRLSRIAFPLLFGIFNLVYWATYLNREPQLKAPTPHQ
Chain of α1(A322D)β2γ2 GABAA receptor (α1 subunit) (P47870 26-512): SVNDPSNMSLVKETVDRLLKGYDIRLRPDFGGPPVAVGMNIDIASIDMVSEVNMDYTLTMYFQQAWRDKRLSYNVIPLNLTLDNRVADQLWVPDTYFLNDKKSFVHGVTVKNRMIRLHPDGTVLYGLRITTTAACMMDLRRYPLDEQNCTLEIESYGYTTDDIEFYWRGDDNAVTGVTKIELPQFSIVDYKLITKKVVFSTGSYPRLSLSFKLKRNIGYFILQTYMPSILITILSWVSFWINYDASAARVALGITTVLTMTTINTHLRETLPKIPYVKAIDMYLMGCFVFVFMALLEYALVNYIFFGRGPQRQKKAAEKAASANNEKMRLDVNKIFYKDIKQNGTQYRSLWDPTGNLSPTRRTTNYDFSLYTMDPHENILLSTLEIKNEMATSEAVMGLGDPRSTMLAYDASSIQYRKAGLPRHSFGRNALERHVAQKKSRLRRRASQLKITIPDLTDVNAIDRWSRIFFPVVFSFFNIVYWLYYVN
Chain of α1(A322D)β2γ2 GABAA receptor (α1 subunit) (P18507 40-475 partner): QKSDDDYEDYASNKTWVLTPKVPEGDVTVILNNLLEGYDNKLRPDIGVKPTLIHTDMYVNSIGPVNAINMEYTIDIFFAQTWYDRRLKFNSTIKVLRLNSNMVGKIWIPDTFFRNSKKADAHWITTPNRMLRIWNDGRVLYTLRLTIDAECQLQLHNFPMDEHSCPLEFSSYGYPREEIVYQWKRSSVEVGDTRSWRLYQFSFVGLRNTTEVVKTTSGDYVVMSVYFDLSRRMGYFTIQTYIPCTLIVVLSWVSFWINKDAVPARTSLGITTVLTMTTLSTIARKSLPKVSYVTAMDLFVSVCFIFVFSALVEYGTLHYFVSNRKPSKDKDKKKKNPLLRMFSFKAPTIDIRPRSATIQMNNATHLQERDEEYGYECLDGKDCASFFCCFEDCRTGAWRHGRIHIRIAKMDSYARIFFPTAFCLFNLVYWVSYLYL

For `NCCCC(=O)O` [GABA], the “whole-cell patch-clamp peak current at 3 mM GABA, after SAHA treatment” value was 14 ± 3 pA.
